The values below are quoted from earlier work in patent US20050287230A1, “Method of producing ginsenoside 20 (R)-Rh2 and composition of matter thereof” (priority 2004, published 2005).

Like-named read-outs stand apart in the source and are kept apart here.

For one series, the system named is HRA cells. As to conditions: dosage-dependent.
Series [1] deals with Morris liver cancer, human cervical cancer, B16 malignant melanoma and Hela cells.
The conditions of series [2]: Stomach irrigation with 2 g/kg.
A further series deals with sarcoma 180. As to conditions: 5 mg/kg dosage.
For series [3] the following is noted: mouse, orally taken.
The subject of another series is LAK cells. As to conditions: tumor patient.
The next series addresses rhTNF-a (Homo sapiens, UniProt P01375). Particulars: external experiment.
The conditions of series [4]: subcutaneous injection 10 mg/kg.

rhTNF-a, sequence (P01375 77-233 limits assumed): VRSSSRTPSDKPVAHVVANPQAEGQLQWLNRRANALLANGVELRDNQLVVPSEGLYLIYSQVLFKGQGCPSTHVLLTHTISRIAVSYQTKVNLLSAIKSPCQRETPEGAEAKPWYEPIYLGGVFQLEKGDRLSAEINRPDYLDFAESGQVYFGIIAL

As for `CC(C)=CCC[C@](C)(O)[C@H]1CC[C@]2(C)[C@@H]1[C@H](O)C[C@@H]1[C@@]3(C)CC[C@H](O[C@@H]4O[C@H](CO)[C@@H](O)[C@H](O)[C@H]4O)C(C)(C)[C@@H]3CC[C@]12C` [ginsenoside Rh2, ginseng dialcohol-3-O-β-D-glucopyranoside], the “effective range for inhibition of proliferation” value in the series with HRA cells was 10˜100 μmol/L. In addition, the results for the “inhibition of HL60 tumor strain” value with HL60 and in the series on HL60 (listed as ginsenoside-Rh2) were “inhibit the human promyelcytic leukemia HL60 tumor strain significantly” and “significant effect”, respectively. The “inhibition effect on the proliferation” value in series [1] (2-10 μg/ml in culture solution) is “different degrees of inhibition effect”. In series [1] (external experiment), the “inhibition on the proliferation function” value is “outstanding inhibition”.

For the compound `CC(C)=CC[C@@H](O)C1=CC(=O)c2c(O)ccc(O)c2C1=O` [Shikonin], the solubility in water entry is reported as “insoluble”. Further, the death result in series [2] is “no dead mouse”.

Take Lentinan: the solubility in water entry is reported as “almost indissoluble”. Besides, the “inhibition rate of anti-tumor” value in the series with sarcoma 180 is given as 97.5%. Further, the “acute toxicity LD50” value in [3] was greater than 1250 mg/kg.

Take `CC(C)=CCC[C@@](C)(O)[C@H]1CC[C@]2(C)[C@@H]1[C@H](O)C[C@@H]1[C@@]3(C)CC[C@H](O)C(C)(C)[C@@H]3[C@@H](O[C@@H]3O[C@H](CO)[C@@H](O)[C@H](O)[C@H]3O)C[C@]12C` [ginsenoside 20(R)-Rh1]: the “inhibition of HL60 tumor strain” value in the series with HL60 is given as “inhibit the human promyelcytic leukemia HL60 tumor strain significantly”.

On to `CC(C)=CCC[C@](C)(O[C@@H]1O[C@H](CO)[C@@H](O)[C@H](O)[C@H]1O)[C@H]1CC[C@]2(C)[C@@H]1[C@H](O)C[C@@H]1[C@@]3(C)CC[C@H](O)C(C)(C)[C@@H]3[C@@H](O[C@@H]3O[C@H](CO)[C@@H](O)[C@H](O)[C@H]3O[C@@H]3O[C@@H](C)[C@H](O)[C@@H](O)[C@H]3O)C[C@]12C` [ginsenoside Re], for which, in the series with LAK cells, the “level above which effect upon LAK activity appears” value is greater than 5 µg/mL.

Consider `CC(C)=CCC[C@](C)(O[C@@H]1O[C@H](CO[C@@H]2OC[C@H](O[C@@H]3OC[C@@H](O)[C@H](O)[C@H]3O)[C@H](O)[C@H]2O)[C@@H](O)[C@H](O)[C@H]1O)[C@H]1CC[C@]2(C)[C@@H]1[C@H](O)C[C@@H]1[C@@]3(C)CC[C@H](O[C@@H]4O[C@H](CO)[C@@H](O)[C@H](O)[C@H]4O[C@@H]4O[C@H](CO)[C@@H](O)[C@H](O)[C@H]4O)C(C)(C)[C@@H]3CC[C@]12C` [ginsenoside-Ra1], for which, on rhTNF-a, the “increase of rhTNF-a activity” value is given as 134 times.

Take `C[C@H]1[C@H](C)CC[C@]2(C(=O)O)CC[C@]3(C)C(=CC[C@@H]4[C@@]5(C)CC[C@H](O)C(C)(C)[C@@H]5CC[C@]43C)[C@H]12` [Ursolic acid]: the solubility in water result is recorded as “insoluble”. Besides, the “serum gorge invert ammonia enzyme” value in [4] was “can reduce”. Besides, the “reversal of the inhibition function of MΦ” value with J744 macrophage (50 μg/ml) was “partially deteriorates”. For the same compound, the “reversal of the inhibition function of MΦ” value in the series on J744 macrophage (100 μg/ml) was “totally deteriorate”.

On to `CC(C)=CCC[C@](C)(O)[C@H]1CC[C@]2(C)[C@@H]1[C@H](O)C[C@@H]1[C@@]3(C)CC[C@H](O)C(C)(C)[C@@H]3[C@@H](O[C@@H]3O[C@H](CO)[C@@H](O)[C@H](O)[C@H]3O)C[C@]12C` [ginsenoside-Rh1], for which the “concentration that completely inhibits the proliferation” value with B16 melanoma cells is given as “above 8.0 μg/ml”.
